Laboratory results as given in ChEMBL document CHEMBL1126716, “Synthesis and evaluation of the antitumor activity of 4,5-diamino-substituted 1,2-benzoquinones” (J Med Chem, 1993).

Columns and labels:
[1] = system: EMT6; test: Tested for 90% inhibition against EMT-6 murine mammary carcinoma cell under hypoxia condition; format: functional; conditions: Mus musculus
[2] = system: EMT6; test: Tested for 50% inhibition against EMT-6 murine mammary carcinoma cell under hypoxia condition; format: functional, cell-based; conditions: Mus musculus
[3] = system: EMT6; test: Tested for 50% inhibition against EMT-6 murine mammary carcinoma cell under normal oxygenated condition; format: functional, cell-based; conditions: Mus musculus
[4] = system: EMT6; test: Tested for 90% inhibition against EMT-6 murine mammary carcinoma cell under normal oxygenated condition; format: functional; conditions: Mus musculus
[5] = system: Mus musculus; test: Increase in life span of animals bearing L1210 leukemia after ip administration at a dose of 0.50 mg/kg; format: functional; conditions: route intraperitoneal
[6] = system: Mus musculus; test: Increase in life span of animals bearing L1210 leukemia after ip administration at a dose of 1.50 mg/kg; format: functional; conditions: route intraperitoneal
[7] = system: Mus musculus; test: Survival days at a dose of 1.00 mg/kg after ip administration on days 1-5; format: functional; conditions: route intraperitoneal
[8] = system: Mus musculus; test: Survival days at a dose of 1.25 mg/kg after ip administration on days 1-5; format: functional; conditions: route intraperitoneal
[9] = system: Mus musculus; test: Increase in life span of animals bearing L1210 leukemia after ip administration at a dose of 2.50 mg/kg; Toxic; format: functional, organism-based; parameters: dose 2.5 mg/kg
[10] = system: Mus musculus; test: Survival days at a dose of 0.50 mg/kg after ip administration on days 1-5; format: functional; conditions: dose 0.5 mg/kg; route intraperitoneal
[11] = system: Mus musculus; test: Survival days at a dose of 2.00 mg/kg after ip administration on days 1-5; format: functional; conditions: route intraperitoneal
[12] = system: Mus musculus; test: Survival days at a dose of 1.50 mg/kg after ip administration on days 1-5; format: functional; conditions: dose 1.5 mg/kg; route intraperitoneal
[13] = system: Mus musculus; test: Increase in life span of animals bearing L1210 leukemia after ip administration at a dose of 1.25 mg/kg; format: functional; conditions: route intraperitoneal
[14] = system: Mus musculus; test: Increase in life span of animals bearing L1210 leukemia after ip administration at a dose of 1.00 mg/kg; format: functional; conditions: route intraperitoneal
[15] = system: Mus musculus; test: Survival days at a dose of 2.50 mg/kg after ip administration on days 1-5; format: functional; conditions: dose 2.5 mg/kg; route intraperitoneal
[16] = system: Mus musculus; test: Increase in life span of animals bearing L1210 leukemia after ip administration at a dose of 2.00 mg/kg; format: functional; conditions: route intraperitoneal

SMILES | IC90 [1] [µM] | IC50 [2] [µM] | IC50 [3] [µM] | IC90 [4] [µM] | also measured
COC1=CC(=O)C(=O)C=C1OC | > 500 | > 500 | 500 | > 500 | 
CCOC(=O)NC1=C(N2CC2)C(=O)C(NC(=O)OCC)=C(N2CC2)C1=O [DIAZIQUONE] |  | 7.5 | 5 |  | 
O=C1C=C(N2CC2)C(N2CC2)=CC1=O | 1 | 0.2 | 0.4 | 1.1 | ILS at 0.5 mg/kg [5]: 70%; ILS at 1.5 mg/kg [6]: 86%; Survival days [7]: 13.4; Survival days [8]: 13.6; ILS [9]: Toxic; Survival days [10]: 12.6; Survival days [11]: 11.8; Survival days [12]: 13.8; ILS at 1.25 mg/kg [13]: 84%; ILS at 1 mg/kg [14]: 81%; Survival days [15]: 6; ILS at 2 mg/kg [16]: 59%
CCN(CC)C1=CC(=O)C(=O)C=C1N(CC)CC | > 500 | 400 | 500 | > 500 | 

Further lines, with some results ahead:

IC90 [1] [µM] | IC50 [2] [µM] | SMILES | IC50 [3] [µM] | IC90 [4] [µM] | also measured
190 | 110 | COC1=CC(=O)C(O)=C/C1=N\CCCl | 125 | 455 | 
> 500 | 400 | O=C1C=C(N2CCC2)C(N2CCC2)=CC1=O | 500 | > 500 | 
> 500 | > 500 | O=C1C=C(N2CCCC2)C(N2CCCC2)=CC1=O | > 500 | > 500 | 
